# Measured values: patent US20060063759A1, “Tricyclic steroid hormone nuclear receptor modulators” (priority 2002, published 2006)
# Experiments:
# human MR = molecular target: T1, human MR (Homo sapiens, UniProt P08235); assay: Mineralocorticoid Receptor Binding Assay ([3H]-aldosterone); settings: [3H]-aldosterone binding, human MR expressed in Sf9 cells; read-out: MR Ki
# T1 construct: The full length human MR gene is cloned from a human kidney or human brain cDNA library; His tag from the pAcHLT vector (own knowledge); made in house; host or cells: Sf9 insect cells (baculovirus, pAcHLT transfer vector)
# T1 sequence (P08235 1-984): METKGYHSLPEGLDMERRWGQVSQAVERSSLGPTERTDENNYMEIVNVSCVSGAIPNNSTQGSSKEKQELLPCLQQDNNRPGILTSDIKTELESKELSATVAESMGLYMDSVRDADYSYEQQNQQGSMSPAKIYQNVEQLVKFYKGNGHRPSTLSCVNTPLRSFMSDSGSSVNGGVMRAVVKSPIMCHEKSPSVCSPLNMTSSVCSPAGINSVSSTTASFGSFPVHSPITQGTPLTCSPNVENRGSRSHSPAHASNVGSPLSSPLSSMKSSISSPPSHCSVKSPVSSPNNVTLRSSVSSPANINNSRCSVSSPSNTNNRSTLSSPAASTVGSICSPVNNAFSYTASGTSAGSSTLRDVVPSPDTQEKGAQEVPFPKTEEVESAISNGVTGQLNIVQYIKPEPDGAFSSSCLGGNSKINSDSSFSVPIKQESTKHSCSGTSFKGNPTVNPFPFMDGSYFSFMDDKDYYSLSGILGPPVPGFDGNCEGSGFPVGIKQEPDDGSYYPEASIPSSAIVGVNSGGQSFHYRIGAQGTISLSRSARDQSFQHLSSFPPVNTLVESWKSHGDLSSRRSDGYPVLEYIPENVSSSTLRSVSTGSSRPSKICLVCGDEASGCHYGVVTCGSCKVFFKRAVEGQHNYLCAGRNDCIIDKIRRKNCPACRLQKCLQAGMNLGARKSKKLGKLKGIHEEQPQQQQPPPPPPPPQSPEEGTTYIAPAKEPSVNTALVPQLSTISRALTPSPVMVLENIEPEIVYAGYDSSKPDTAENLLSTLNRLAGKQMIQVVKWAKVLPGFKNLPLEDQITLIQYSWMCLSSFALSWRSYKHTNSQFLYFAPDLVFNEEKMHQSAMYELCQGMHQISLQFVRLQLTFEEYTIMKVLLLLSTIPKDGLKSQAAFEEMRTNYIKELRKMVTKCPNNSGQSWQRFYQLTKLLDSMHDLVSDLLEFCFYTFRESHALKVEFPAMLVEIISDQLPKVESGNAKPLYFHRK
# Summary of the method: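 Lysate supernatant of Sf9 cells expressing full-length human MR (20-25 μg protein) was incubated with 0.5 nM [3H]-aldosterone and test compound in molybdate/Tris/phosphate/glycerol buffer, pH 7.5, ~16 h at 4 °C. Bound ligand was filtered and counted by scintillation; IC50 is the concentration halving [3H]-aldosterone binding.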
# glucocorticoid receptor = molecular target: T2, glucocorticoid receptor (Homo sapiens, UniProt P04150); assay: Glucocorticoid Receptor Binding Assay ([3H]-dexamethasone, A549 cell extract); settings: [3H]-dexamethasone binding, read-out: GR Ki
# T2 construct: containing 50-200 ug of A549 cell extract and 1.86 nM [^3H]-dexamethasone; host or cells: A549 human lung epithelial cells (sonicated cell extract)
# T2 sequence (P04150 1-777): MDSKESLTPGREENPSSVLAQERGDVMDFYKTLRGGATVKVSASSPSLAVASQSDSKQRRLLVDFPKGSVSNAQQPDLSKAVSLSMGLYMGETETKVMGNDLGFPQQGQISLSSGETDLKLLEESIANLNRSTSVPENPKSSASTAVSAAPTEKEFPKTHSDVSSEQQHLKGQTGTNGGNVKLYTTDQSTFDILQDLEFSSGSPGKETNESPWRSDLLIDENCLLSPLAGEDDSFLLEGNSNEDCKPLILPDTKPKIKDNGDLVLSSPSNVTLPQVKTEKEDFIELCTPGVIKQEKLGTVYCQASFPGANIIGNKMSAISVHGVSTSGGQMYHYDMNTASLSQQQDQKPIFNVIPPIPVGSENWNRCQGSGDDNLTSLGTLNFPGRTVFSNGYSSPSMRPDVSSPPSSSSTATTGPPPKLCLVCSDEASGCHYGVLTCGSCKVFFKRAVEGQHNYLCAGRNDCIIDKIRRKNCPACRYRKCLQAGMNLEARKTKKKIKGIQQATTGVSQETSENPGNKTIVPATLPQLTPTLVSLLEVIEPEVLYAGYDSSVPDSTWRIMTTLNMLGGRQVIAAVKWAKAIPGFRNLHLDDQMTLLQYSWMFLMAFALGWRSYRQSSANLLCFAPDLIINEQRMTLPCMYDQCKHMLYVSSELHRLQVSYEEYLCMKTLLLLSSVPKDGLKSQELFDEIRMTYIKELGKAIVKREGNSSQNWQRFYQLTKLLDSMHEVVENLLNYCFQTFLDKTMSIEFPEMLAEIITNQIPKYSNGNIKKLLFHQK
# Summary of the method: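 A549 cell extract (50–200 ug) incubated with 1.86 nM [3H]-dexamethasone and test compound for 16 h at 4 °C in Tris-HCl pH 7.2 buffer with glycerol and molybdate. Unbound radioligand removed by dextran-coated charcoal, then supernatant bound counts measured by scintillation.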
SMILES,Ki (human MR),Ki (glucocorticoid receptor),melting point
"CNS(=O)(=O)c1cccc(C=C2c3ccccc3CCc3ccccc32)c1 [Example 1, 3-(10,11-Dihydro-dibenzo[a,d]cyclohepten-5-ylidenemethyl)-N-methyl-benzenesulfonamide]",< 500 nM,< 500 nM,153.9 °C
"CNS(=O)(=O)c1cc(C)ccc1C=C1c2ccccc2CCc2ccccc21 [Example 2, 2-(10,11-Dihydro-dibenzo[a,d]cyclohepten-5-ylidenemethyl)-5,N-dimethyl-benzenesulfonamide]",< 500 nM,< 500 nM,174.9 °C
"CNS(=O)(=O)c1ccc(C=C2c3ccccc3CCc3ccccc32)cc1 [Example 27, 4-(10,11-Dihydro-dibenzo[a,d]cyclohepten-5-ylidenemethyl)-N-methyl-benzenesulfonamide]",< 500 nM,< 1000 nM,189.7 °C
"Oc1ccc(C=C2c3ccccc3CCc3ccccc32)cc1 [Example 60, b-(10,11-Dihydro-dibenzo[a,d]cyclohepten-5-ylidenemethyl)-phenol]",< 500 nM,< 10000 nM,56.9 °C
"Oc1ccc(C=C2c3ccccc3CCc3ccccc32)cc1O [Example 62, 4-(10,11-Dihydro-dibenzo[a,d]cyclohepten-5-ylidenemethyl)-benzene-1,2-diol]",< 500 nM,< 10000 nM,138 °C
"CS(=O)(=O)Nc1cc(C=C2c3ccccc3CCc3ccccc32)ccc1O [Example 64, N-[5-(10,11-Dihydro-dibenzo[a,d]cyclohepten-5-ylidenemethyl)-2-hydroxy-phenyl]-methanesulfonamide]",< 500 nM,< 500 nM,122.6 °C
"FC(F)Oc1cccc(C=C2c3ccccc3CCc3ccccc32)c1 [Example 65, 5-(3-Difluoromethoxy-benzylidene)-10,11-dihydro-5H-dibenzo[a,d]cycloheptene]",< 500 nM,< 10000 nM,91.3 °C
"O=Cc1ccc(C=C2c3ccccc3CCc3ccccc32)cc1 [Example 68, 4-(10,11-Dihydro-dibenzo[a,d]cyclohepten-5-ylidenemethyl)-benzaldehyde]",< 500 nM,< 500 nM,106.4 °C
"O=Cc1cccc(C=C2c3ccccc3CCc3ccccc32)c1 [Example 70, 3-(10,11-Dihydro-dibenzo[a,d]cyclohepten-5-ylidenemethyl)-benzaldehyde]",< 500 nM,< 1000 nM,86.7 °C
"FC(F)c1cccc(C=C2c3ccccc3CCc3ccccc32)c1 [Example 72, 5-(3-Difluoromethyl-benzylidene)-10,11-dihydro-5H-dibenzo[a,d]cycloheptene]",< 500 nM,< 10000 nM,92.5 °C
"N#Cc1cccc(C=C2c3ccccc3CCc3ccccc32)c1 [Example 81, 3-(10,11-Dihydro-dibenzo[a,d]cyclohepten-5-ylidenemethyl)-benzonitrile]",< 500 nM,< 10000 nM,115.7 °C
"Nc1ccc(C=C2c3ccccc3CCc3ccccc32)cc1 [Example 88, 4-(10,11-Dihydro-dibenzo[a,d]cyclohepten-5-ylidenemethyl)-phenylamine]",< 500 nM,< 1000 nM,> 250 °C
"CCS(=O)(=O)Nc1cccc(C=C2c3ccccc3CCc3ccccc32)c1 [Example 91, Ethanesulfonic acid [3-(10,11-hydro-dibenzo[a,d]cyclohepten-5-ylidenemethyl)-phenyl]-amide]",< 500 nM,< 500 nM,180.2 °C

# Results, then the compound that gave them:
Ki (human MR),Ki (glucocorticoid receptor),melting point,SMILES
< 500 nM,< 1000 nM,149 °C,"CNS(=O)(=O)c1ccccc1C=C1c2ccccc2CCc2ccccc21 [Example 4, 2-(10,11-Dihydro-dibenzo[a,d]cyclohepten-5-ylidenemethyl)-N-methyl-benzenesulfonamide]"
< 500 nM,< 500 nM,155.6 °C,"CCCNS(=O)(=O)c1ccccc1C=C1c2ccccc2CCc2ccccc21 [Example 6, 2-(10,11-Dihydro-benzo[a,d]cyclohepten-5-ylidenemethyl)-N-propyl-benzenesulfonamide]"
< 500 nM,< 10000 nM,129.3 °C,"COc1ccccc1C=C1c2ccccc2CCc2ccccc21 [Example 31, 5-(2-Methoxy-benzylidene)-10,11-dihydro-5H-dibenzo-[a,d]cycloheptene]"
< 500 nM,< 1000 nM,83 °C,"COc1cccc(C=C2c3ccccc3CCc3ccccc32)c1 [Example 32, 5-(3-Methoxy-benzylidene)-10,11-dibydro-5H-dibenzo-[a,d]cycloheptene]"
< 500 nM,< 500 nM,130.6 °C,COc1cccc(C=C2c3ccccc3CCc3ccccc32)c1OC [Example 35]
< 500 nM,< 500 nM,198.9 °C,"O=Cc1ccccc1C=C1c2ccccc2CCc2ccccc21 [Example 69, 2-(10,11-Dihydro-dibenzo[a,d]cyclohepten-5-ylidenemethyl)-benzaldehyde]"
< 500 nM,< 500 nM,13.3 °C,"FC(F)c1ccccc1C=C1c2ccccc2CCc2ccccc21 [Example 71, 5-(2-Difluoromethyl-benzylidene)-10,11-dihydro-5H-dibenzo[a,d]cycloheptene]"
< 500 nM,< 500 nM,121.8 °C,"OCc1ccccc1C=C1c2ccccc2CCc2ccccc21 [Example 74, [2-(10,11-Dihydro-dibenzo[a,d]cyclohepten-5-ylidenemethyl)-phenyl]-methanol]"
< 500 nM,< 500 nM,185.4 °C,"N#Cc1ccccc1C=C1c2ccccc2CCc2ccccc21 [Example 80, 2-(10,11-Dihydro-dibenzo[a,d]cyclohepten-5-ylidenemethyl)-benzonitrile]"
< 500 nM,< 500 nM,204.3 °C,"Nc1cccc(C=C2c3ccccc3CCc3ccccc32)c1 [Example 86, 3-(10,11-Dihydro-dibenzo[a,d]cyclohepten-5-ylidenemethyl)-phenylamine]"
< 500 nM,< 500 nM,145.2 °C,"Nc1ccccc1C=C1c2ccccc2CCc2ccccc21 [Example 87, 2-(10,11-Dihydro-dibenzo[a,d]cyclohepten-5-ylidenemethyl)-phenylamine]"
